Peptide text beside a SMILES is read from it.
Columns and labels:
Test in all cases: Quantitative suspension test, bactericidal activity, BS EN 1276:2019
Assay type in all cases: cell-based
Set-up in all cases: key to Bactericidal activity verdict: Active: For bacteria: ACTIVE if log R ≥ 5 according to BS EN 1276:2019; Not active: For bacteria: ACTIVE if log R ≥ 5 according to BS EN 1276:2019
Details in all cases: 60 min, 37 °C, BSA 0.3 g/L
[1] = tested on: Pseudomonas aeruginosa ATCC 15442
Source text: (§1) The method is based on the suspension test according to BS EN 1276:2019, which specifies a quantitative suspension analysis for the evaluation of the bactericidal activity of chemical disinfectants and antiseptics used in food, industrial, domestic, and institutional areas against a panel of microorganisms under conditions that more closely simulate practical use. Briefly, S. aureus ATCC 6538, P. aeruginosa ATCC 15442, and Staphylococcus epidermidis ATCC 12228 were used as test organisms at a bacterial concentration of 1.0 × 10^8 colony-forming units (CFU) per mL (CFU/mL). In the test, BSA (Bovine Serum Albumin) (0.3 g/L) was used as an interfering substance to mimic clean conditions. […] The reaction mixture was incubated at 37 °C for 60 min before transferring each sample to a tube containing a neutralizer solution consisting of 30 g/L polysorbate 80, 1 g/L sodium thiosulfate, 3 g/L lecithin, 1 g/L tryptone, 8.5 g/L NaCl, 100 mL/L phosphate buffer and water. The negative control (untreated cells) was prepared using PBS instead of biocides. The solutions were then plated onto Tryptone Soy Agar (TSA) and incubated at 37 °C for 48 h to determine the logarithmic CFU/mL reduction, according to the following Equation:(2) log R = log (N0) − log (Na) where R refers to the reduction in viability, N refers to the number of CFU/mL in the test mixture at the beginning of the contact time, and Na refers to the number of CFU/mL in the test mixture at the end of the contact time. […] The test method and the minimum requirements for fungicidal activity of chemical disinfectant and antiseptic products were performed according to BS EN 1650:2019. The fungicidal activity was studied using the vegetative cells of Candida albicans ATCC 10231 and the spores of Aspergillus brasiliensis ATCC 16404 as test organisms. […] The mixture was maintained at 37 °C for a contact time of 60 min. At the end of this contact time, an aliquot was taken, and the fungicidal activity was immediately neutralized with a solution consisting of 30 g/L polysorbate 80, 1 g/L sodium thiosulfate, 3 g/L lecithin, 1 g/L tryptone, 8.5 g/L NaCl, 100 mL/L phosphate buffer and water. The samples were then plated onto malt extract agar (MEA) and incubated at 30 °C for 48 h to determine the numbers of surviving fungi as the logarithmic CFU/mL reduction, calculated according to Equation (2).

[2] = tested on: Staphylococcus aureus ATCC 6538
Source text: as §1

[3] = tested on: Staphylococcus epidermidis ATCC 12228
Source text: as §1

CC[C@H](C)[C@H](NC(=O)[C@H](Cc1c[nH]c2ccccc12)NC(=O)[C@H](CCCCN)NC(=O)[C@@H](N)CCCNC(=N)N)C(=O)N[C@@H](CC(C)C)C(=O)N[C@@H](CCCCN)C(=O)N[C@@H](Cc1c[nH]c2ccccc12)C(=O)N[C@@H](CC(C)C)C(=O)N[C@@H](CCCNC(=N)N)C(=O)N[C@H](C(=O)N[C@@H](Cc1c[nH]c2ccccc12)C(=O)N[C@@H](CCCCN)C(=O)N[C@@H](CCCCN)C(N)=O)[C@@H](C)O [RKW] (H-RKWILKWLRTWKK-NH2; N-terminus assumed)
Bactericidal activity verdict ([1]; RKW 5 µM): Active | Na (CFU/mL at the end of the contact time) ([1]; RKW 5 µM): < 1.40 × 10^2 CFU/mL | Bactericidal activity verdict ([1]; RKW 10 µM): Active | Na (CFU/mL at the end of the contact time) ([1]; RKW 10 µM): < 1.40 × 10^2 CFU/mL | Bactericidal activity verdict ([1]; RKW 20 µM): Active | Na (CFU/mL at the end of the contact time) ([1]; RKW 20 µM): < 1.40 × 10^2 CFU/mL | Bactericidal activity verdict ([1]; RKW 50 µM): Active | Na (CFU/mL at the end of the contact time) ([1]; RKW 50 µM): < 1.40 × 10^2 CFU/mL | Bactericidal activity verdict ([1]; RKW 100 µM): Active | Na (CFU/mL at the end of the contact time) ([1]; RKW 100 µM): < 1.40 × 10^2 CFU/mL | Bactericidal activity verdict ([2]; RKW 5 µM): Na = 1.11 × 10^5 log Na = 5.10 log R = 2.25 Not active | Na (CFU/mL at the end of the contact time) ([2]; RKW 5 µM): 1.11 × 10^5 CFU/mL | Bactericidal activity verdict ([2]; RKW 10 µM): Na = 5.10 × 10^4 log Na = 4.71 log R = 2.59 Not active | Na (CFU/mL at the end of the contact time) ([2]; RKW 10 µM): 5.10 × 10^4 CFU/mL | Bactericidal activity verdict ([2]; RKW 20 µM): Na= 1.47 × 10^4 log Na = 4.20 log R = 3.13 Not active | Na (CFU/mL at the end of the contact time) ([2]; RKW 20 µM): 1.47 × 10^4 CFU/mL | Na (CFU/mL at the end of the contact time) ([2]; RKW 50 µM): 1.47 × 10^4 CFU/mL | Na (CFU/mL at the end of the contact time) ([2]; RKW 100 µM): 1.47 × 10^4 CFU/mL | Bactericidal activity verdict ([3]; RKW 5 µM): Na = 3.70 × 10^2 log Na = 2.57 log R = 4.71 Not active | Na (CFU/mL at the end of the contact time) ([3]; RKW 5 µM): 3.70 × 10^2 CFU/mL | Bactericidal activity verdict ([3]; RKW 10 µM): Na = 2.40 × 10^2 log Na = 2.38 log R = 4.90 Not active | Na (CFU/mL at the end of the contact time) ([3]; RKW 10 µM): 2.40 × 10^2 CFU/mL | Bactericidal activity verdict ([3]; RKW 20 µM): Na = 1.60 × 10^2 log Na = 2.20 log R = 5.08 Active | Na (CFU/mL at the end of the contact time) ([3]; RKW 20 µM): 1.60 × 10^2 CFU/mL | Bactericidal activity verdict ([3]; RKW 50 µM): Na = 1.60 × 10^2 log Na = 2.20 log R = 5.08 Active | Na (CFU/mL at the end of the contact time) ([3]; RKW 50 µM): 1.60 × 10^2 CFU/mL | Bactericidal activity verdict ([3]; RKW 100 µM): Na = 1.60 × 10^2 log Na = 2.20 log R = 5.08 Active | Na (CFU/mL at the end of the contact time) ([3]; RKW 100 µM): 1.60 × 10^2 CFU/mL

— paper PMC12292521, “Discovery of a Potent Antimicrobial Peptide Through Rational Design: A New Frontier in Pathogen Control” (Biomolecules, 2025)
